Test results as given in publication PMC11178545, “Alkynyl nicotinamides show antileukemic activity in drug-resistant acute myeloid leukemia” (The Journal of Clinical Investigation, 2024).
“And” between values parts separate entries of the source, which are not always exact repeats. Identical values can stand only once. Like-named read-outs stand apart in the source and are kept apart here.

Legend:
[1] = test system: BaF3 cells expressing FLT3ITD; experiment: BaF3 proliferation, colorimetric WST-1 assay; format: cell-based, murine; settings: for proliferation, colorimetric assay: BaF3/FLT3 ITD, 48 hours, replicates; for IC50: Mus musculus
[2] = test system: BaF3 cells transduced with Flt3ITD/ITD, with IL3; experiment: BaF3 Flt3ITD/ITD proliferation in the presence of IL3 (Supplementary Figure 3A); settings: replicates
[3] = test system: BaF3 cells expressing FLT3ITD-D835Y; experiment: BaF3 proliferation, colorimetric WST-1 assay; settings: for proliferation, colorimetric assay: BaF3/FLT3 ITD-D835Y, 48 hours, replicates; for IC50: Mus musculus, BaF3, read-out: IC50, growth inhibition
[4] = concentration 0.016 (unit not given)
[5] = concentration 0.08 (unit not given)
[6] = concentration 0.4 (unit not given)
[7] = concentration 2 (unit not given)
[8] = concentration 10 (unit not given)
[9] = concentration 50 (unit not given)
[10] = concentration 250 (unit not given)
[11] = concentration 1000 (unit not given)
[12] = concentration 5000 (unit not given)
[13] = concentration 0.08 (unit not given), listed as Midostuarin
[14] = concentration 0.4 (unit not given), listed as Midostuarin
[15] = concentration 2 (unit not given), listed as Midostuarin
[16] = concentration 10 (unit not given), listed as Midostuarin
[17] = concentration 50 (unit not given), listed as Midostuarin
[18] = concentration 250 (unit not given), listed as Midostuarin
[19] = concentration 1000 (unit not given), listed as Midostuarin

| Compound | proliferation, colorimetric assay [1, 4] | proliferation, colorimetric assay [1, 5] | proliferation, colorimetric assay [1, 6] | proliferation, colorimetric assay [1, 7] | proliferation, colorimetric assay [1, 8] | proliferation, colorimetric assay [1, 9] | proliferation, colorimetric assay [1, 10] | Supplementary Figure 3A - BaF3-ITD+IL3 proliferation [2, 4] | Supplementary Figure 3A - BaF3-ITD+IL3 proliferation [2, 5] | Supplementary Figure 3A - BaF3-ITD+IL3 proliferation [2, 6] | Supplementary Figure 3A - BaF3-ITD+IL3 proliferation [2, 7] | Supplementary Figure 3A - BaF3-ITD+IL3 proliferation [2, 8] | Supplementary Figure 3A - BaF3-ITD+IL3 proliferation [2, 9] | Supplementary Figure 3A - BaF3-ITD+IL3 proliferation [2, 10] | Supplementary Figure 3A - BaF3-ITD+IL3 proliferation [2, 11] | Supplementary Figure 3A - BaF3-ITD+IL3 proliferation [2, 12] | proliferation, colorimetric assay [3, 4] | proliferation, colorimetric assay [3, 5] | proliferation, colorimetric assay [3, 6] | proliferation, colorimetric assay [3, 7] | further results |
| --- | --- | --- | --- | --- | --- | --- | --- | --- | --- | --- | --- | --- | --- | --- | --- | --- | --- | --- | --- | --- | --- |
| CNC(=O)c1cc(Oc2ccc(NC(=O)Nc3ccc(Cl)c(C(F)(F)F)c3)cc2)ccn1 [Sorafenib] | 16.3815 and 107.167 and 106.617 and 105.393 | 11.5881 and 112.929 and 104.573 and 131.213 | 10.6541 and 113.594 and 9.4402 and 110.22 | 98.6784 and 107.329 and 5.2213 and 125.689 | 18.373 and 31.6289 and 5.419 and 106.507 | 7.163 and 11.5817 and 3.098 and 23.7431 | 5.383 and 5.798 and 3.082 and 8.355 | 102.183 | 99.8176 | 106.455 | 107.595 and 105.229 and 115.278 | 111.02 and 105.412 and 136.419 | 101.081 and 115.196 and 123.039 | 102.541 and 117.007 and 139.808 | 122.84 and 135.916 | 77.5171 and 4.823 | 94.7245 | 78.2586 and 100.59 and 93.5618 | 71.3463 and 101.258 and 87.9764 | 114.498 and 101.128 and 64.2837 | IC50 ([1]; BaF3 FLT3ITD, read-out: IC50, growth inhibition): 0.0009 µM; proliferation, colorimetric assay [3, 8]: 112.637 and 109.063 and 80.4355; proliferation, colorimetric assay [3, 9]: 116.564 and 100.156 and 98.1229; proliferation, colorimetric assay [3, 10]: 119.18 and 103.897 and 90.2769; proliferation, colorimetric assay [3, 11]: 83.0213 and 52.2833; IC50 [3]: 1.09 µM |
| CO[C@@H]1[C@H](N(C)C(=O)c2ccccc2)C[C@H]2O[C@]1(C)n1c3ccccc3c3c4c(c5c6ccccc6n2c5c31)C(=O)NC4 [Midostaurin] | – | – | – | – | – | – | – | 91.5686 | – | 100.9 | – | – | – | – | – | – | 103.305 | – | – | – | proliferation, colorimetric assay ([1]; concentration 0.016 (unit not given), listed as Midostuarin): 100.822 and 110.628 and 104.388; proliferation, colorimetric assay [1, 13]: 99.3158 and 113.294 and 110.094 and 38.1922; proliferation, colorimetric assay [1, 14]: 103.096 and 110.499 and 104.386 and 61.929; proliferation, colorimetric assay [1, 15]: 104.186 and 115.142 and 102.467 and 142.341; proliferation, colorimetric assay [1, 16]: 37.6324 and 34.6342 and 45.0183 and 96.6129; proliferation, colorimetric assay [1, 17]: 6.377 and 12.3055 and 3.243 and 9.898; proliferation, colorimetric assay [1, 18]: 0.5457 and 1.807 and -0.6585 and 0.387; Supplementary Figure 3A - BaF3-ITD+IL3 proliferation [2, 15]: 105.72 and 98.3726 and 124.683; Supplementary Figure 3A - BaF3-ITD+IL3 proliferation [2, 16]: 110.807 and 113.1 and 132.819; Supplementary Figure 3A - BaF3-ITD+IL3 proliferation [2, 17]: 106.186 and 111.038 and 133.216; Supplementary Figure 3A - BaF3-ITD+IL3 proliferation [2, 18]: 110.669 and 139.596; Supplementary Figure 3A - BaF3-ITD+IL3 proliferation [2, 19]: 9.826 and 146.156; Supplementary Figure 3A - BaF3-ITD+IL3 proliferation ([2]; concentration 5000 (unit not given), listed as Midostuarin): 3.94 and -0.5106; proliferation, colorimetric assay [3, 13]: 108.476 and 93.9081; proliferation, colorimetric assay [3, 14]: 108.102 and 98.6805 and 100.719; proliferation, colorimetric assay [3, 15]: 111.763 and 100.839 and 106.043; proliferation, colorimetric assay [3, 16]: 46.6696 and 71.6598 and 33.3064; proliferation, colorimetric assay [3, 17]: 14.4574 and 14.3192 and 6.786; proliferation, colorimetric assay [3, 18]: 11.4376 and 9.499 and 3.744; proliferation, colorimetric assay [3, 19]: 3.105 and 1.155 |
| Cc1ccc(C(=O)Nc2ccc(CN3CCN(C)CC3)c(C(F)(F)F)c2)cc1C#Cc1cnc2cccnn12 [Ponatinib] | 103.303 and 29.4843 and 104.802 and 107.771 | 103.551 and 112.425 and 114.204 | 63.9851 and 109.481 and 101.917 | 12.349 and 96.4027 and 63.939 and 105.862 | 7.628 and 22.9278 and 11.2521 and 38.4511 | 2.92 and 5.376 and 0.7258 and 6.47 | 5.173 and 2.723 and -0.4582 and 0.3438 | 100.2 | 100.413 | 94.562 | 103.021 and 110.146 and 131.879 | 104.504 and 106.518 and 133.143 | 106.029 and 102.109 and 134.35 | 109.055 and 106.007 and 134.452 | 75.4094 and 10.3894 | 0.9902 and -0.5808 | 105.632 | 110.397 and 108.415 and 100.457 | 112.735 and 103.362 and 108.642 | 92.8711 and 101.44 and 100.79 | IC50 ([1]; BaF3, read-out: IC50, growth inhibition): 0.00254 µM; proliferation, colorimetric assay [3, 8]: 111.954 and 107.659; proliferation, colorimetric assay [3, 9]: 78.5183 and 101.652 and 95.7414; proliferation, colorimetric assay [3, 10]: 19.3842 and 49.6264 and 16.1584; proliferation, colorimetric assay [3, 11]: 2.173 and 0.6094; IC50 [3]: 0.163 µM |
